Measurements as given in US20080268451A1, “MEASUREMENT OF AN INSOLUBLE ANALYTE IN A SAMPLE” (priority 2007, published 2008).

What was measured:
Cyp1A1 = test: qNPA gene expression, rifampicin-treated canine hepatocytes; format: cell-based; settings: 0-10 μM rifampicin
Cyp2A337 = settings: canine hepatocytes, 0-10 μM rifampicin, qNPA
Cyp2D15 = test: qNPA gene expression, rifampicin-treated canine hepatocytes; format: cell-based; settings: 0-10 μM rifampicin
Cyp2B6 = test: qNPA gene expression, rifampicin-treated human primary liver cells; settings: 0-10 μM rifampicin
Cyp2D6 = test: as above; settings: 0-10 μM rifampicin

Cyp1A1 gene expression (Cyp1A1): upregualted | Cyp2A337 gene expression (Cyp2A337): upregualted | Cyp2D15 gene expression (Cyp2D15): upregualted | Cyp2B6 transcript level (enzyme induction) (Cyp2B6): induced | Cyp2D6 transcript level (Cyp2D6; qNPA): suppressed | suppression of Cyp2D6 (Cyp2D6; qNPA (Panel a of FIG. 27)): less than 50%
SMILES: CO[C@H]1/C=C/O[C@@]2(C)Oc3c(C)c(O)c4c(O)c(c(/C=N/N5CCN(C)CC5)c(O)c4c3C2=O)NC(=O)/C(C)=C\C=C\[C@H](C)[C@H](O)[C@@H](C)[C@@H](O)[C@@H](C)[C@H](OC(C)=O)[C@@H]1C [rifampicin]
